Results on 1 compound are retold here after patent US20230248744A1, “25-HYDROXYVITAMIN D2 AND/OR D3 FOR USE IN OBESITY” (CARBOGEN AMCIS B.V., priority 2020, published 2023).

Like-named read-outs stand apart in the source and are kept apart here.

This data set can be described thus: Double-blind randomized crossover pharmacokinetic study, single oral 900 μg vitamin D3 or 25(OH)D3. The format is in vivo, human. The settings on record: for Cmax / Tmax / concentration at 14 days / half-life / AUC: both sexes, human, in vivo, po, single oral 900 μg, mean ± SEM; for Cmax / Tmax / half-life / AUC: 900 ug; for concentration at 14 days: 900 μg, read-out: Ctrough (trough level at day 14); for half-life: read-out: T1/2 (elimination half-life) (converted); for blood level of vitamin D3 relative to Cmax: FIG. 4a, turning point after about 2% days, single oral 900 μg vitamin D3. The procedure: The conclusions as presented herein are based on the following experiments: In a double-blinded cross-over study single high dosages (900 μg total in two soft gel capsules containing 450 μg) of either vitamin D3 or 25(OH)D3 were administered to vitamin D-deficient volunteers including healthy controls as well as subjects with a history of malabsorption. At the outset, the BMI was determined. Blood samples were then taken at baseline and at 2, 4, 6, 8, and 12 hours as well as 1, 2, 3, 7, and 14 days after administration (FIG. 2). All the samples were analyzed for their contents in vitamin D3 per se as well as 25(OH)D3. […] In addition, peak levels were more rapidly reached with 25(OH)D3 than with vitamin D3 (see FIG. 5). The immediate increase in serum 25(OH)D3 compared to the delayed increase observed with vitamin D3 supports the concept that 25(OH)D3 is being rapidly absorbed from the small intestine into the portal circulation, whereas vitamin D3 first needs to be incorporated into the chylomicrons which are absorbed into the lymphatic system.
The pharmacokinetic parameters of orally administered 25(OH)D3 and vitamin D3 (both provided for formulation in form of visually identical soft-gel pills) were studied based on the corresponding serum concentration-time curves in healthy adults and adults with a history of intestinal malabsorption (see FIG. 2). Cinical safety has been evaluated by monitoring serum calcium, phosphorus, parathyroid hormone (PTH) and 25(OH)D levels at the beginning and end of the study. Furthermore, the distribution of supplemented 25(OH)D3 (or 25(OH)D2) into adipose tissue and the role it is playing there was also studied.
Serum levels of calcium, phosphorus, albumin, creatinine and intact parathyroid hormone (iPTH) were determined at baseline and at the end of each 14-day pharmacokinetic study (see Table 4). The pharmacokinetic parameters have been determined by evaluating the serum concentration-time curves in patients with malabsorption syndrome and healthy controls (Tables 5 and 6).
The primary outcomes of the study are the serum pharmacokinetic parameters of 25(OH)D3 and vitamin D3 after a single oral administration of 900 μg of each in a double-blind randomized crossover study.
Adult patients (18 years and older) with a history of intestinal malabsorption (n=10) and healthy adult volunteers (n=10); (of both sexes and all ethnicities) has been recruited in this randomized double-blinded crossover study. The BMI has been determined and recorded at baseline. All subjects have been prescreened for 25(OH)D levels to include subjects with 25(OH)D<30 ng/mL. The subjects have been randomized to receive two oral doses of 450 μg taken simultaneously (total 900 μg) of either vitamin D3 or 25(OH)D3. Blood samples were taken at baseline and at 2, 4, 6, 8, 12 hours and days 1, 2, 3, 7 and 14. There was a two weeks washout period before the subject received in a double blinded manner, two oral doses of 450 μg taken simultaneously (total 900 μg) of either 25(OH)D3 or vitamin D3 (depending on which one they took in the randomization) any time after the 2 week washout. Blood samples were taken at baseline and at 2, 4, 6, 8, 12 hours and days 1, 2, 3, 7 and 14 days. Serum levels of calcium, phosphorus, albumin, creatinine, and intact parathyroid hormone (iPTH) were obtained at baseline and at day 14 for each arm (or within a reasonable time if the study participant was unable to come on the exact day).
The individuals participating in the study had, after signing a consent form, been randomized by a computer randomization chart in a blinded manner to receive two oral doses of 450 μg taken simultaneously (total 900 μg) of either vitamin D3 or 25(OH)D3. Blood samples have been taken at baseline and at 2, 4, 6, 8, 12 hours and days 1, 2, 3, 7 and 14. […]

[1] abbreviates: healthy participants with higher BMI (N = 5).
[2] abbreviates: healthy participants with lower BMI (N = 5).
Setting [3] is: patients with fat malabsorption (N = 6).

In the case of `C=C1CC[C@H](O)C/C1=C/C=C1\CCC[C@]2(C)[C@@H]([C@H](C)CCCC(C)C)CC[C@@H]12` [vitamin D3, cholecalciferol], for the setting “FIG. 5, oral 900 μg”, the “time at which the peak of the serum concentration is reached” value is reported as “about 12 hours”. In addition, the “bioavailability in subjects with a history of vitamin D/fat malabsorption” value (after administration of the respective product, FIGS. 3a and b) is “reduced”. The Cmax reads like this: (healthy participants (N = 10)) 53.5 ± 6 ng/mL; under setting [1], 44.4 ± 9.3 ng/mL; under setting [2], 62.6 ± 5.7 ng/mL; under setting [3], 24.3 ± 8.4 ng/mL. Also, the Tmax turned out to be 10.4 ± 0.7 h (healthy participants (N = 10)), 9.6 ± 1 h under setting [1], 11.2 ± 0.8 h under setting [2] and 11.3 ± 0.7 h under setting [3]. Moreover, the concentration at 14 days runs as follows: (healthy participants (N = 10)) 0.3 ± 0.3 ng/mL; under setting [1], 0 ng/mL; under setting [2], 0.6 ± 0.6 ng/mL; under setting [3], 0.1 ± 0.1 ng/mL. Further, the half-life (healthy participants (N = 10)) was 31.4 ± 3.3 h, the half-life under setting [1] was 23.8 ± 3.1 h, the half-life under setting [2] was 39 ± 3.4 h and the half-life under setting [3] is 28.7 ± 1.5 h. Also, the exposure (AUC) reads like this: (healthy participants (N = 10), serum level of the administered substance) 3260 ± 496 ng·h/mL; under setting [1], 2090 ± 547 ng·h/mL; under setting [2], 4430 ± 350 ng·h/mL; (patients with fat malabsorption (N = 6), serum level of the administered substance) 1180 ± 425 ng·h/mL. Further, the “blood level of vitamin D3 relative to Cmax” value is, setting by setting: (high BMI subjects) “≈ 23 % of Cmax”; (low BMI (normal) subjects) 41 % of Cmax and ≈ 41 % of Cmax.
